Key:
[1] = test system: Green Peach Aphid (Myzus persicae) (MYZUPE); assay: Bioassay on green peach aphid (GPA), foliar spray on cabbage seedlings; assay type: in vivo; conditions: 72 h, 200 ppm foliar spray on cabbage seedlings, graded after three days, Abbott-corrected % control, read-out: MYZUPE % Ctrl @ 200 ppm
Method: Certain molecules disclosed in this document were tested against GPA using procedures described in the following example. In the reporting of the results, the “Table 3: GPA (MYZUPE) and sweetpotato whitefly-crawler (BEMITA) Rating Table” was used (See Table Section).
Cabbage seedlings grown in 3-inch pots, with 2-3 small (3-5 cm) true leaves, were used as test substrate. The seedlings were infested with 20-50 GPA (wingless adult and nymph stages) one day prior to chemical application. Four pots with individual seedlings were used for each treatment. Test compounds (2 mg) were dissolved in 2 mL of acetone/methanol (1:1) solvent, forming stock solutions of 1000 ppm test compound. The stock solutions were diluted 5× with 0.025% Tween 20 in H2O to obtain the solution at 200 ppm test compound. A hand-held aspirator-type sprayer was used for spraying a solution to both sides of […] leaves until runoff. Reference plants (solvent check) were sprayed with the diluent only containing 20% by volume of acetone/methanol (1:1) solvent. Treated plants were held in a holding room for three days at approximately 25° C. and ambient relative humidity (RH) prior to grading. Evaluation was conducted by counting the number of live aphids per plant under a microscope. Percent Control was measured by using Abbott's correction formula (W. S. Abbott, “A Method of Computing the Effectiveness of an Insecticide” J. Econ. Entomol. 18 (1925), pp. 265-267) as follows. Corrected % Control=100*(X−Y)/X • where • X=No. of live aphids on solvent check plants and • Y=No. of live aphids on treated plants
Biological Data for GPA (MYZUPE) and sweetpotato whitefly-crawler (BEMITA)” (See Table Section).

[2] = test system: Sweetpotato whitefly-crawler (Bemisia tabaci) (BEMITA); assay: Insecticidal test for sweetpotato whitefly-crawler in foliar spray assay on cotton plants; assay type: in vivo; conditions: 200 ppm foliar spray on cotton plants, graded after 8-9 days, Abbott-corrected % control, read-out: BEMITA % Ctrl @ 200 ppm
Method: Cotton plants grown in 3-inch pots, with 1 small (3-5 cm) true leaf, were used as test substrate. The plants were placed in a room with whitefly adults. Adults were allowed to deposit eggs for 2-3 days. After a 2-3 day egg-laying period, plants were taken from the adult whitefly room. Adults were blown off leaves using a hand-held Devilbiss sprayer (23 psi). Plants with egg infestation (100-300 eggs per plant) were placed in a holding room for 5-6 days at 82° F. and 50% RH for egg hatch and crawler stage to develop. Four cotton plants were used for each treatment. Compounds (2 mg) were dissolved in 1 mL of acetone solvent, forming stock solutions of 2000 ppm. The stock solutions were diluted 10× with 0.025% Tween 20 in H2O to obtain a test solution at 200 ppm. A hand-held Devilbiss sprayer was used for spraying a solution to both sides of cotton leaf until runoff. Reference plants (solvent check) were sprayed with the diluent only. Treated plants were held in a holding room for 8-9 days at approximately 82° F. and 50% RH prior to grading. Evaluation was conducted by counting the number of live nymphs per plant under a microscope. Insecticidal activity was measured by using Abbott's correction formula and presented in “Table 4. Biological Data for GPA (MYZUPE) and sweetpotato whitefly-crawler (BEMITA)” (see column “BEMITA”): Corrected % Control=100*(X−Y)/X • where • X=No. of live nymphs on solvent check plants • Y=No. of live nymphs on treated plants Pesticidally Acceptable Acid Addition Salts, Salt Derivatives, Solvates, Ester Derivatives, Polymorphs, Isotopes and Radionuclides

SMILES | inhibition at 200 ppm [1] | inhibition at 200 ppm [2] | melting point
Cc1nc(-c2cccnc2)cn1N(C)C(=O)C(C)C [Compound 1] | 0 to 80% | 0 to 80% | 122 to 125 °C
CSC(C)CC(=O)N(C)n1cc(-c2cccnc2)nc1C (centres unmarked) [Compound 2, N-Methyl-N-(2-methyl-4-pyridin-3-yl-imidazol-1-yl)-3-methylsulfanyl-butramide] | 0 to 80% | < 0% | –
Cc1nc(-c2cccnc2)cn1N(C)C(=O)OC(C)(C)C [Compound 3, Methyl-(2-methyl-4-pyridin-3-yl-imidazol-1-yl)-carbamic acid tert-butyl ester] | 0 to 80% | 0 to 80% | –
Cc1nc(-c2cccnc2)c(C)n1NC(=O)OC(C)(C)C [Compound 4, (2,5-Dimethyl-4-pyridin-3-yl-imidazol-1-yl)-carbamic acid tert-butyl ester] | < 0% | 0 to 80% | –
CC(=O)Nn1cc(-c2cccnc2)nc1C [Compound 5] | 80 to 100% | 80 to 100% | –
CC(=O)N(C)n1cc(-c2cccnc2)nc1C [Compound 6] | 0 to 80% | 80 to 100% | –
Cc1nc(-c2cccnc2)cn1N(C)C(=O)C(C)(C)C [Compound 7] | 0 to 80% | 80 to 100% | –
Cc1nc(-c2cccnc2)cn1N(C)C(=O)CC(F)(F)F [Compound 8] | 0 to 80% | 80 to 100% | 130.9 to 131.5 °C
CCCCC(=O)N(C)n1cc(-c2cccnc2)nc1C [Compound 9] | 0 to 80% | 80 to 100% | –
CSCCC(=O)N(C)n1cc(-c2cccnc2)nc1C [Compound 10] | 0 to 80% | 80 to 100% | –
Cc1nc(-c2cccnc2)cn1N(CC1CC1)C(=O)C(C)(C)C [Compound 11] | 0 to 80% | 80 to 100% | –
Cc1nc(-c2cccnc2)cn1N(CC1CC1)C(=O)CC(F)(F)F [Compound 12] | < 0% | 80 to 100% | –
CCN(C(=O)C(C)(C)C)n1cc(-c2cccnc2)nc1C [Compound 13] | < 0% | 0 to 80% | –
CCN(C(=O)CC(F)(F)F)n1cc(-c2cccnc2)nc1C [Compound 14] | < 0% | < 0% | –
CCCCC(=O)N(CC1CC1)n1cc(-c2cccnc2)nc1C [Compound 15] | 0 to 80% | 80 to 100% | –
CSCC(C)(C)C(=O)N(C)n1cc(-c2cccnc2)nc1C [Compound 16] | < 0% | < 0% | –
CCN(C(=O)C(C)C)n1cc(-c2cccnc2)nc1C [Compound 17] | 0 to 80% | 0 to 80% | –
CCN(C(=O)CCSC)n1cc(-c2cccnc2)nc1C [Compound 18] | 80 to 100% | 80 to 100% | –
CCCCC(=O)N(CC)n1cc(-c2cccnc2)nc1C [Compound 19] | 0 to 80% | 80 to 100% | –
Cc1nc(-c2cccnc2)cn1N(CC1CC1)C(=O)C(C)C [Compound 20] | 0 to 80% | < 0% | –
CSCCC(=O)N(CC1CC1)n1cc(-c2cccnc2)nc1C [Compound 21] | 0 to 80% | 80 to 100% | –
Cc1nc(-c2cncc(F)c2)cn1N(C)C(=O)C(C)C [Compound 22] | 0 to 80% | 80 to 100% | –
CSCCC(=O)N(C)n1cc(-c2cncc(F)c2)nc1C [Compound 23] | 80 to 100% | 80 to 100% | –
CCN(C(=O)C(C)C)n1cc(-c2cncc(F)c2)nc1C [Compound 24] | 0 to 80% | 0 to 80% | –
CCN(C(=O)CCSC)n1cc(-c2cncc(F)c2)nc1C [Compound 25] | 0 to 80% | 80 to 100% | –
Cc1nc(-c2cncc(F)c2)cn1N(CC1CC1)C(=O)C(C)C [Compound 26] | 0 to 80% | 0 to 80% | –
CSCCC(=O)N(CC1CC1)n1cc(-c2cncc(F)c2)nc1C [Compound 27] | 0 to 80% | 80 to 100% | –
CC(=O)Nn1cc(-c2cccnc2)nc1Cl [Compound 39, N-(2-Chloro-4-(pyridin-3-yl)-1H-imidazol-1-yl)acetamide] | – | – | 129 to 139 °C
CCN(C(=O)OC(C)(C)C)n1cc(-c2cccnc2)nc1Cl [Compound 41, tert-Butyl (2-chloro-4-(pyridin-3-yl)-1H-imidazol-1-yl)(ethyl)carbamate] | 0 to 80% | 80 to 100% | –

— patent publication US9210931B2, “Pesticidal compositions and processes related thereto” (Dow AgroSciences LLC, priority 2010, dated 2015)
